Reference: patent US10329262B2, “Quinazolinone antibiotics” (priority 2013, dated 2019)

Columns and labels:
in vivo = settings: mouse, in vivo
Procedure: We conducted first fast PK studies (n=2 mice per time point, 5 time points) dosing the compounds iv, followed by full PK studies for selected compounds (n=3 mice per time point, 10-12 time points per route of administration, iv and po).
A single dose of compound 2 was administered to mice (n=3 per time point) by tail vein injection or by oral gavage at 10 mg/kg. Blood was collected by cardiac puncture in heparinized syringes at 2, 5, 20, and 40 min and at 1, 2, 3, 4, 8, 18, and 24 h after iv dosing and at 0.5, 1, 2, 3, 4, 6, 9, 24, and 30 h after po dosing. Blood was centrifuged to obtain plasma. A 50-μL aliquot of plasma was mixed with 100 μL of acetonitrile containing internal standard (5 μM final concentration), followed by centrifugation at 20,000 g for 15 min. The supernatant was analyzed by reverse-phase UPLC. PK parameters were calculated as described in the Plasma protein binding and Pharmacokinetics sections below (see also Gooyit et al. J. Med. Chem. 54, 6676-6690 (2011)).
The area under the concentration-time curve up to the last quantifiable sampling time (AUC0-last) was calculated by the trapezoidal rule. AUC0-∞ was calculated as AUC0-last+(Clast/k), where Clast is the concentration at the last quantifiable sampling time and k is the elimination rate constant. The concentration at time=0 (C0) was estimated from the first sampling times by back-extrapolation using log-linear regression analysis. Half-lives (t1/2α and t1/2β) were estimated from the linear portion of the initial or terminal concentration-time data by linear regression, where the slope of the line was the rate constant k and t1/2α=ln 2/k. Volume of distribution (Vd) was calculated as the dose divided by the initial concentration (C0). Clearance (CL) was calculated from the dose divided by AUC0-∞. Oral bioavailability (F) was calculated by dividing the AUCpo by the AUCiv, as equivalent iv and po doses were administered.

Plasma stability = assay type: in vitro ADME; settings: mouse, 37° C.
Procedure: Compound 2 (20 μM) was incubated in blank mouse plasma at 37° C. and aliquots were taken at specific time points and quenched with two volumes of acetonitrile containing internal standard. Samples were centrifuged and analyzed by reverse-phase UPLC.

[1] = Metabolic stability in human S9; assay type: in vitro ADME; settings: human S9, 2 μM
Procedure: Aliquots were taken at 0, 5, 10, 20, 30, 40, and 60 min, and mixed with two volumes of acetonitrile containing internal standard. The precipitated protein was centrifuged at 20,000 g for 15 min, and the supernatant was analyzed by reversed-phase UPLC.

S. aureus (ATCC 29213) = assay: Macromolecular synthesis assays; assay type: cell-based, Staphylococcus aureus
Excerpt: Mechanism of Action of the Quinazolinones. The mode of action of 2 was investigated by macromolecular synthesis assays in S. aureus in the logarithmic phase, which monitor incorporation of radiolabeled precursors [methyl-^3H]-thymidine, [5-^3H]-uridine, L-[4,5-^3H]-leucine, or D-[2,3-^3H]-alanine into DNA, RNA, protein, or cell wall (peptidoglycan), respectively. Inhibition of radiolabeled precursor incorporation by 2 at a concentration of half the MIC was compared with those of known inhibitors of each pathway (ciprofloxacin, rifampicin, tetracycline, and fosfomycin, respectively).
The mode of action of 2 was investigated by macromolecular synthesis assays in S. aureus in the logarithmic phase (Miller, A A et al. Antimicrob. Agents Chemother. 52, 2806-12 (2008)), which monitor incorporation of radiolabeled precursors [methyl-^3H]-thymidine, [5-^3H]-uridine, L-[4,5-^3H]-leucine, or D-[2,3-^3H]-alanine into DNA, RNA, protein, or cell wall (peptidoglycan), respectively.
The incorporation of radiolabeled precursors—[methyl-^3H]-thymidine, [5-^3H]-uridine, L-[4,5-^3H]-leucine, or D-[2,3-^3H]-alanine—into DNA, RNA, protein, or peptidoglycan, respectively, in logarithmically growing S. aureus (ATCC 29213) was measured using a previously published method, with aliquots taken every 20 min over a 120-min incubation period (Wilson et al., Antimicrob. Agents Chemother. 39, 1925-33 (1995)).

PBP2a allosteric site = target: T1, PBP2a allosteric site (Staphylococcus aureus, UniProt Q53707); assay: Intrinsic fluorescence quenching of oxacillin-acylated PBP2a; assay type: binding, S. aureus
T1 construct: made in house
T1 sequence (Q53707 entry or part of it): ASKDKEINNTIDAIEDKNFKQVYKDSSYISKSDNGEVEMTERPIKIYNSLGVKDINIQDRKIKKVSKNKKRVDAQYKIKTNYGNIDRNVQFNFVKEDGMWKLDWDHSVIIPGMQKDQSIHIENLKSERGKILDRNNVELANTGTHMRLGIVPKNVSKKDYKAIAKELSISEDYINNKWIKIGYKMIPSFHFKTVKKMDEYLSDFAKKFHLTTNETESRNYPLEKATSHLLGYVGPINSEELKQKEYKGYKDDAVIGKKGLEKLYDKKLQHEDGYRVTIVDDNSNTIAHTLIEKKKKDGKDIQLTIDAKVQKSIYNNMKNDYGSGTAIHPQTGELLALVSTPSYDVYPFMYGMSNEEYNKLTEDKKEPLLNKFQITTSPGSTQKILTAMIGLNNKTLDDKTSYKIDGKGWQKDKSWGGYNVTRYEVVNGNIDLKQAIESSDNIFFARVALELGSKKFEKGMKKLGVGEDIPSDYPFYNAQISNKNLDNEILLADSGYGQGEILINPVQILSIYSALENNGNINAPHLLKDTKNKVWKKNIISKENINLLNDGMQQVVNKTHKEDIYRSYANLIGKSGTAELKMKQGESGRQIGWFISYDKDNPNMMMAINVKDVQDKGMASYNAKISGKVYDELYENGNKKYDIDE
Procedure: FIG. 11. Binding of quinazolinone 2 to PBP2a allosteric site. […] (a) The change in the maximum fluorescence intensity was calculated as the difference compared to the intensity in the absence of compound. Any dilution effect was subtracted out using a buffer titration control. […] A nonlinear regression was used to fit the data, with an R^2 of 0.9997. (b) Emission scans of PBP2a intrinsic fluorescence with excitation at 280 nm. Antibiotic 2 was titrated in to give the final concentrations shown and 3 scans (1 min cycles) were averaged for each titration.
Therefore, we have evidence for binding of antibiotic 2 to the allosteric site (X-ray) and to the active site (kinetic assays for competitive inhibition and X-ray altered conformations for the active-site residues) of PBP2a). Binding of antibiotic 2 at the allosteric site induces conformational changes at the active site (FIG. 7B). All of these movements serve to double the area and the volume of the active site.
Therefore, we have evidence for binding of the antibiotic 2 to the allosteric site (X-ray) and to the active site (kinetic assays for competitive inhibition and X-ray altered conformations for the active-site residues) of PBP2a. Binding of antibiotic 2 at the allosteric site induces conformational changes at the active site (FIG. 7b). All of these movements serve to double the area and volume of the active site.

N#Cc1ccc(/C=C/c2nc3ccccc3c(=O)n2-c2cccc(C(=O)O)c2)cc1.[Na] [Compound 2, Sodium (E)-3-(3-carboxyphenyl)-2-(4-cyanostyryl)quinazolin-4(3H)-one]
clearance (in vivo; ICR, iv, 10 mg/kg): 7.1 mL/min/kg
concentration at 24 h (in vivo; ICR, iv, 10 mg/kg): 142 ± 53 ng/mL
t1/2elimination (in vivo; ICR, iv, 10 mg/kg): 22 h
half-life (in vivo; ICR, po, 10 mg/kg): 58 h
AUC (in vivo; female, ICR, iv): 23500 ng·h/mL
clearance (in vivo; female, ICR, iv): 7.1 mL/min/kg
Vd (in vivo; female, ICR, iv, 10 mg/kg): 0.0076 L
half-life (in vivo; female, ICR, iv, 10 mg/kg): 22 h
AUC (in vivo; female, ICR, po, 10 mg/kg): 15500 ng·h/mL
bioavailability (in vivo; female, ICR, po, 10 mg/kg, F (oral bioavailability)): 66%
bioavailability (in vivo; 10 mg/kg, F (absolute oral bioavailability)): 66%
AUC(0-inf) (in vivo; iv, 10 mg/kg): 23500 ng·h/mL
AUC(0-t) (in vivo; iv, 10 mg/kg): 19700 ng·h/mL
C0 (in vivo; iv, 10 mg/kg): 33000 ng/mL
Clearance as share of hepatic blood flow in mice (in vivo; iv, 10 mg/kg): less than 10%
Distribution t1/2α (in vivo; iv, 10 mg/kg): 0.243 h
Vd (in vivo; iv, 10 mg/kg): 0.303 L/kg
Volume of distribution (in vivo; iv, 10 mg/kg): 0.3 L/kg
clearance (in vivo; iv, 10 mg/kg): 7.07 mL/min/kg
concentration at 24 h (in vivo; iv, 10 mg/kg): 142 ± 53 ng/mL
t1/2distribution (in vivo; iv, 10 mg/kg): 0.242 h
t1/2elimination (in vivo; iv, 10 mg/kg): 22.3 h
Plasma level at 24 hours (in vivo; iv, 10 mg/kg, 24 h): 142 ± 53 ng/mL
AUC(0-inf) (in vivo; po, 10 mg/kg): 15500 ng·h/mL
AUC(0-t) (in vivo; po, 10 mg/kg): 6550 ng·h/mL
Cmax (in vivo; po, 10 mg/kg): 1290 ng/mL
Time of maximum concentration (in vivo; po, 10 mg/kg): 1 h
half-life (in vivo; po, 10 mg/kg): 58.2 h
t1/2distribution (in vivo; po, 10 mg/kg): 2.06 h
half-life at 20 μM (Plasma stability): 141 h
Compound remaining after 1-h incubation [1]: 100%
Effect on replication, transcription, or translation (S. aureus (ATCC 29213)): did not significantly affect
Inhibition of cell-wall (peptidoglycan) biosynthesis (S. aureus (ATCC 29213)): 51±12%
Kd (PBP2a allosteric site): 16.3 µM
